According to PubChem BioAssay AID250 (DTP/NCI, 2004):
Values joined by “and” are separate entries in the source; they are usually repeats but may differ in a detail not shown here. Identical values can stand only once. Toxic doses and inconclusive results are not listed.

Tested on: BDF1 mice, L1210 leukemia sc, survival T/C
Assay: NCI In Vivo Anticancer Drug Screen. Data for tumor model L1210 Leukemia (subcutaneous) in B6D2F1 (BDF1) mice
Settings: endpoint: median survival time, higher = longer survival
Outline: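 Mice carrying transplanted tumors received test compounds, and survival or tumor size was measured. Values are the treated-group measurement (T) divided by that of the vehicle-treated control group (C).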

[1] = dose: 39.0 mg/kg/injection, schedule: Q01DX Z (sc), vehicle: methylcellulose (MC)
[2] = dose: 180.0 mg/kg/injection, schedule: Q01DX Z (sc), vehicle: methylcellulose (MC)
[3] = dose: 300.0 mg/kg/injection, schedule: Q01DX Z (sc), vehicle: methylcellulose (MC)

CC[C@]1(O)C[C@H]2CN(CCc3c([nH]c4ccccc34)[C@@](C(=O)OC)(c3cc4c(cc3OC)N(C=O)[C@H]3[C@@](O)(C(=O)OC)[C@H](OC(C)=O)[C@]5(CC)C=CCN6CC[C@]43[C@@H]65)C2)C1
T/C (dose: 0.25 mg/kg/injection, schedule: Q01DX001 (sc), vehicle: water): 100 % of control and 101 % of control
T/C (dose: 0.5 mg/kg/injection, schedule: Q01DX001 (sc), vehicle: water): 104 % of control and 105 % of control
T/C (dose: 0.65 mg/kg/injection, schedule: Q01DX Z (oral), vehicle: water): 116 % of control
T/C (dose: 1.0 mg/kg/injection, schedule: Q01DX001 (sc), vehicle: water): 111 % of control
T/C (dose: 1.08 mg/kg/injection, schedule: Q01DX Z (oral), vehicle: water): 122 % of control
T/C (dose: 1.08 mg/kg/injection, schedule: Q02DX Z (sc), vehicle: water): 111 % of control
T/C (dose: 1.8 mg/kg/injection, schedule: Q01DX Z (oral), vehicle: water): 100 % of control
T/C (dose: 1.8 mg/kg/injection, schedule: Q02DX Z (sc), vehicle: water): 122 % of control
T/C (dose: 2.0 mg/kg/injection, schedule: Q01DX001 (sc), vehicle: water): 120 % of control and 122 % of control
T/C (dose: 3.0 mg/kg/injection, schedule: Q01DX Z (oral), vehicle: water): 100 % of control
T/C (dose: 3.0 mg/kg/injection, schedule: Q02DX Z (sc), vehicle: water): 122 % of control
T/C (dose: 5.0 mg/kg/injection, schedule: Q01DX Z (oral), vehicle: water): 100 % of control
T/C (dose: 5.0 mg/kg/injection, schedule: Q02DX Z (sc), vehicle: water): 116 % of control
T/C (dose: 8.4 mg/kg/injection, schedule: Q02DX Z (sc), vehicle: water): 100 % of control

NC(=O)N(CCCl)N=O
T/C (dose: 0.39 mg/kg/injection, schedule: Q01DX Z (sc), vehicle: methylcellulose (MC)): 123 % of control
T/C (dose: 0.65 mg/kg/injection, schedule: Q01DX Z (sc), vehicle: methylcellulose (MC)): 123 % of control
T/C (dose: 0.65 mg/kg/injection, schedule: Q01DX Z (sc), vehicle: saline): 168 % of control
T/C (dose: 1.08 mg/kg/injection, schedule: Q01DX Z (sc), vehicle: methylcellulose (MC)): 247 % of control
T/C (dose: 1.08 mg/kg/injection, schedule: Q01DX Z (sc), vehicle: saline): 273 % of control
T/C (dose: 1.8 mg/kg/injection, schedule: Q01DX Z (sc), vehicle: methylcellulose (MC)): 300 % of control
T/C (dose: 1.8 mg/kg/injection, schedule: Q01DX Z (sc), vehicle: saline): 420 % of control and 526 % of control
T/C (dose: 3.0 mg/kg/injection, schedule: Q01DX Z (sc), vehicle: methylcellulose (MC)): 309 % of control
T/C (dose: 3.0 mg/kg/injection, schedule: Q01DX Z (sc), vehicle: saline): 365 % of control and 463 % of control
T/C (dose: 5.0 mg/kg/injection, schedule: Q01DX001 (sc), vehicle: saline): 157 % of control
T/C (dose: 5.0 mg/kg/injection, schedule: Q01DX Z (sc), vehicle: saline): 270 % of control and 310 % of control
T/C (dose: 5.0 mg/kg/injection, schedule: Q07DX Z (sc), vehicle: saline): 200 % of control
T/C (dose: 8.4 mg/kg/injection, schedule: Q01DX001 (sc), vehicle: saline): 178 % of control
T/C (dose: 8.4 mg/kg/injection, schedule: Q01DX Z (sc), vehicle: saline): 170 % of control
T/C (dose: 8.4 mg/kg/injection, schedule: Q07DX Z (sc), vehicle: saline): 289 % of control
T/C (dose: 14.0 mg/kg/injection, schedule: Q01DX001 (sc), vehicle: saline): 178 % of control
T/C (dose: 14.0 mg/kg/injection, schedule: Q01DX Z (sc), vehicle: saline): 120 % of control
T/C (dose: 14.0 mg/kg/injection, schedule: Q07DX Z (sc), vehicle: saline): 257 % of control
T/C (dose: 23.0 mg/kg/injection, schedule: Q01DX Z (sc), vehicle: saline): 110 % of control
T/C (dose: 23.0 mg/kg/injection, schedule: Q07DX Z (sc), vehicle: saline): 152 % of control

O=C(O)CCCc1ccc(N(CCCl)CCCl)cc1
T/C (dose: 8.4 mg/kg/injection, schedule: Q01DX Z (sc), vehicle: methylcellulose (MC)): 100 % of control
T/C (dose: 14.0 mg/kg/injection, schedule: Q01DX Z (sc), vehicle: methylcellulose (MC)): 100 % of control
T/C (dose: 23.0 mg/kg/injection, schedule: Q01DX Z (sc), vehicle: methylcellulose (MC)): 100 % of control
T/C [1]: 110 % of control

Nc1nc(N)c2nc(CNc3ccc(C(=O)NC(CCC(=O)O)C(=O)O)cc3)cnc2n1 (centres undefined)
T/C (dose: 0.04 mg/kg/injection, schedule: Q01DX Z (sc), vehicle: other): 100 % of control
T/C (dose: 0.05 mg/kg/injection, schedule: Q01DX Z (sc), vehicle: other): 100 % of control
T/C (dose: 0.08 mg/kg/injection, schedule: Q01DX Z (sc), vehicle: other): 100 % of control
T/C (dose: 0.4 mg/kg/injection, schedule: Q01DX Z (sc), vehicle: other): 120 % of control
T/C (dose: 0.6 mg/kg/injection, schedule: Q01DX Z (sc), vehicle: other): 120 % of control
T/C (dose: 0.89 mg/kg/injection, schedule: Q01DX Z (sc), vehicle: other): 120 % of control
T/C (dose: 1.33 mg/kg/injection, schedule: Q01DX Z (sc), vehicle: other): 110 % of control
T/C (dose: 2.0 mg/kg/injection, schedule: Q01DX Z (sc), vehicle: other): 120 % of control

COc1cc([C@@H]2c3cc4c(cc3[C@@H](OC3OC5COC(C)OC5C(O)C3O)[C@H]3COC(=O)[C@H]23)OCO4)cc(OC)c1O (some centres undefined)
T/C (dose: 2.0 mg/kg/injection, schedule: Q01DX009 (ip), vehicle: Klucel (hydroxypropylcellulose) (HPC)): 120 % of control
T/C (dose: 8.0 mg/kg/injection, schedule: Q01DX009 (ip), vehicle: Klucel (hydroxypropylcellulose) (HPC)): 160 % of control
T/C (dose: 16.0 mg/kg/injection, schedule: Q01DX009 (ip), vehicle: Klucel (hydroxypropylcellulose) (HPC)): 105 % of control

CC(=O)OCC(=O)[C@@]1(O)CC[C@H]2[C@@H]3C[C@H](F)C4=CC(=O)CC[C@]4(C)[C@H]3[C@@H](O)C[C@@]21C
T/C (dose: 8.4 mg/kg/injection, schedule: Q01DX Z (sc), vehicle: steriod suspending solution): 100 % of control
T/C (dose: 14.0 mg/kg/injection, schedule: Q01DX Z (sc), vehicle: steriod suspending solution): 100 % of control
T/C (dose: 23.0 mg/kg/injection, schedule: Q01DX Z (sc), vehicle: steriod suspending solution): 111 % of control
T/C (dose: 39.0 mg/kg/injection, schedule: Q01DX Z (sc), vehicle: steriod suspending solution): 155 % of control
T/C (dose: 65.0 mg/kg/injection, schedule: Q01DX Z (sc), vehicle: steriod suspending solution): 155 % of control
T/C (dose: 108.0 mg/kg/injection, schedule: Q01DX Z (sc), vehicle: steriod suspending solution): 150 % of control
T/C (dose: 180.0 mg/kg/injection, schedule: Q01DX Z (sc), vehicle: steriod suspending solution): 161 % of control

CC[C@H]1CN2CCc3cc(OC)c(OC)cc3[C@@H]2C[C@@H]1C[C@H]1NCCc2cc(OC)c(OC)cc21
T/C (dose: 0.39 mg/kg/injection, schedule: Q03HX003 (sc), vehicle: saline): 107 % of control
T/C (dose: 0.65 mg/kg/injection, schedule: Q03HX003 (sc), vehicle: saline): 92 % of control
T/C (dose: 1.08 mg/kg/injection, schedule: Q03HX003 (sc), vehicle: saline): 100 % of control
T/C (dose: 1.8 mg/kg/injection, schedule: Q01DX009 (sc), vehicle: saline): 100 % of control
T/C (dose: 1.8 mg/kg/injection, schedule: Q03HX003 (sc), vehicle: saline): 114 % of control
T/C (dose: 3.0 mg/kg/injection, schedule: Q01DX009 (sc), vehicle: saline): 103 % of control
T/C (dose: 5.0 mg/kg/injection, schedule: Q04DX003 (sc), vehicle: saline): 96 % of control
T/C (dose: 8.4 mg/kg/injection, schedule: Q04DX003 (sc), vehicle: saline): 107 % of control
T/C (dose: 16.0 mg/kg/injection, schedule: Q01DX001 (ip), vehicle: acid diluted with saline): 124 % of control

O=C(Nc1ccc(C2=NCCN2)cc1)c1ccc(NC(=O)c2ccc(C3=NCCN3)cc2)cc1
T/C [1]: 95 % of control
T/C [2]: 115 % of control
T/C [3]: 110 % of control

CCCSc1ncnc2nc[nH]c12
T/C (dose: 38.9 mg/kg/injection, schedule: Q01DX Z (sc), vehicle: methylcellulose (MC)): 100 % of control
T/C (dose: 64.8 mg/kg/injection, schedule: Q01DX Z (sc), vehicle: methylcellulose (MC)): 100 % of control
T/C (dose: 108.0 mg/kg/injection, schedule: Q01DX Z (sc), vehicle: methylcellulose (MC)): 100 % of control
T/C [2]: 120 % of control
T/C [3]: 110 % of control

Nc1[nH]c(=O)nc2[nH]ncc12
T/C (dose: 46.8 mg/kg/injection, schedule: Q01DX Z (sc), vehicle: methylcellulose (MC)): 100 % of control
T/C (dose: 78.0 mg/kg/injection, schedule: Q01DX Z (sc), vehicle: methylcellulose (MC)): 100 % of control
T/C (dose: 130.0 mg/kg/injection, schedule: Q01DX Z (sc), vehicle: methylcellulose (MC)): 100 % of control
T/C (dose: 216.0 mg/kg/injection, schedule: Q01DX Z (sc), vehicle: methylcellulose (MC)): 108 % of control
T/C (dose: 360.0 mg/kg/injection, schedule: Q01DX Z (sc), vehicle: methylcellulose (MC)): 104 % of control
T/C (dose: 600.0 mg/kg/injection, schedule: Q01DX Z (sc), vehicle: methylcellulose (MC)): 100 % of control
